Laboratory results as given in patent US5023340A, “Pyrrolizioines and synthesis thereof” (Monsanto Company, priority 1989, dated 1991).

What was measured:
[1] = test system: broad specificity β-galactosidase/β-glucosidase; assay: inhibition of human liver glycosidases: broad specificity β-galactosidase/β-glucosidase; type: biochemical
Source text: (§1) The effects of the ring contracted swainsonines (3) and (4) on the inhibition of 14 human liver glycosidases was studied by the assay methods described in Palamarczyk et al., Arch. Biochem. Biophys. 243, 35 (1985); Daniel et al., Glycoconjugate J. 6, 229 (1989) and Cenci di Bello et al., Biochem. J. 259, 855 (1989). […] Chem. Commun.

lysosomal α-mannosidase [2] = biological target: T1, lysosomal α-mannosidase (Homo sapiens, UniProt O00754); assay: inhibition of human liver glycosidases: lysosomal α-mannosidase; type: biochemical
T1 construct: from tissue; host or cells: human liver
T1 sequence (O00754 50-601 limits assumed): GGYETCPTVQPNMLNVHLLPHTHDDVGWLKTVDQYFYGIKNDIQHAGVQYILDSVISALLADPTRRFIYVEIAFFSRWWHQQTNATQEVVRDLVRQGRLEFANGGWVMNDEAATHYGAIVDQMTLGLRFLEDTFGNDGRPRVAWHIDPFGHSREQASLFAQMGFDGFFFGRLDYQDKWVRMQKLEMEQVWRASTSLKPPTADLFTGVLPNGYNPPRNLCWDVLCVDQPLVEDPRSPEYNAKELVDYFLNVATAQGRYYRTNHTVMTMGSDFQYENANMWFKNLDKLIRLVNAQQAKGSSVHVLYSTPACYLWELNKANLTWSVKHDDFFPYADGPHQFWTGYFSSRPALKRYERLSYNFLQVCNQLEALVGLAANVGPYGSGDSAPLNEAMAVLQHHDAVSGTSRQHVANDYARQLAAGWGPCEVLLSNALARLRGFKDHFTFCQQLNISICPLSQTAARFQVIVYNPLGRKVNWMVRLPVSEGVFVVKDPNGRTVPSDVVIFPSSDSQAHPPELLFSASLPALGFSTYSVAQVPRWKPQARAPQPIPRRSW
T1 sequence (O00754 602-882 limits assumed): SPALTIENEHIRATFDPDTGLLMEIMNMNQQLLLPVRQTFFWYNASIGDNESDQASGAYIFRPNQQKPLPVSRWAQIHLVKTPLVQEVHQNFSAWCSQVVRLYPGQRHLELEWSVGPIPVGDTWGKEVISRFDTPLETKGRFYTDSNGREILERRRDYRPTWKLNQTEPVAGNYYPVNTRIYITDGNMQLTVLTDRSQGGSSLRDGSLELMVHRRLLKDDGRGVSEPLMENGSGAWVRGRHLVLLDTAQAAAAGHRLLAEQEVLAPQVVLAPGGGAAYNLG
T1 sequence (O00754 883-1011 limits assumed): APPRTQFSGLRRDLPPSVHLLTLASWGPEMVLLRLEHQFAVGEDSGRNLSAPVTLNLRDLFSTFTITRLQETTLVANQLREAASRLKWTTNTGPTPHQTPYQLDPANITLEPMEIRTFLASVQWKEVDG
Source text: as §1

snail β-mannosidase = assay: inhibition of snail β-mannosidase; type: biochemical
[3] = test system: Golgi II processing mannosidase; assay: inhibition of human liver glycosidases: Golgi II mannosidase; type: biochemical; conditions: compared with swainsonine
Source text: as §1

β-galactosidase = assay: inhibition of human liver glycosidases: β-galactosidase; type: biochemical; conditions: 1 mM
Source text: as §1

[4] = biological target: green coffee bean α-galactosidase (Coffea arabica, UniProt Q42656); assay: inhibition of green coffee bean α-galactosidase; type: biochemical
Chain of green coffee bean α-galactosidase (Q42656 16-378): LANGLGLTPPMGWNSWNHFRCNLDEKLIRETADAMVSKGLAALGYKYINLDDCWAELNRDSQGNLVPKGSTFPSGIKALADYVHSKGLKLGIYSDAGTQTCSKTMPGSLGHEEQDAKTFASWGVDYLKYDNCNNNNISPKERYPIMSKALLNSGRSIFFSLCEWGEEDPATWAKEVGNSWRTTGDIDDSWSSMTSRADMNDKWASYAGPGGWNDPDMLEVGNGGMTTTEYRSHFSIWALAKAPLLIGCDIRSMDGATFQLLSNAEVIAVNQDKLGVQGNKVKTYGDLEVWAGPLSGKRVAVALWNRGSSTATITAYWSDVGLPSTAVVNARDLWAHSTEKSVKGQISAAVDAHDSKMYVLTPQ

almond β-glucosidase = assay: inhibition of almond β-glucosidase; type: biochemical
[5] = test system: bovine kidney α-fucosidase; assay: inhibition of bovine kidney α-fucosidase; type: biochemical
[6] = test system: Aspergillus niger α-galactosidase; assay: inhibition of Aspergillus niger α-galactosidase; type: biochemical
glycosidases = assay: inhibition of glycosidases (general statement); type: biochemical; conditions: compared with swainsonine
bovine β-galactosidase = assay: inhibition of bovine β-galactosidase; type: biochemical
α-fucosidase = assay: inhibition of human liver glycosidases: α-fucosidase; type: biochemical; conditions: 1 mM
Source text: as §1

[7] = test system: neutral processing mannosidase; assay: inhibition of human liver glycosidases: neutral processing mannosidase; type: biochemical; conditions: compared with swainsonine
Source text: as §1

bovine β-hexosaminidase = assay: inhibition of bovine β-hexosaminidase; type: biochemical
yeast α-glucosidase = assay: inhibition of yeast α-glucosidase; type: biochemical
Jack bean α-mannosidase = biological target: T2, Jack bean α-mannosidase (Canavalia ensiformis, UniProt C0HJB3); assay: inhibition of Jack bean α-mannosidase; type: biochemical
T2 sequence (C0HJB3 1-981): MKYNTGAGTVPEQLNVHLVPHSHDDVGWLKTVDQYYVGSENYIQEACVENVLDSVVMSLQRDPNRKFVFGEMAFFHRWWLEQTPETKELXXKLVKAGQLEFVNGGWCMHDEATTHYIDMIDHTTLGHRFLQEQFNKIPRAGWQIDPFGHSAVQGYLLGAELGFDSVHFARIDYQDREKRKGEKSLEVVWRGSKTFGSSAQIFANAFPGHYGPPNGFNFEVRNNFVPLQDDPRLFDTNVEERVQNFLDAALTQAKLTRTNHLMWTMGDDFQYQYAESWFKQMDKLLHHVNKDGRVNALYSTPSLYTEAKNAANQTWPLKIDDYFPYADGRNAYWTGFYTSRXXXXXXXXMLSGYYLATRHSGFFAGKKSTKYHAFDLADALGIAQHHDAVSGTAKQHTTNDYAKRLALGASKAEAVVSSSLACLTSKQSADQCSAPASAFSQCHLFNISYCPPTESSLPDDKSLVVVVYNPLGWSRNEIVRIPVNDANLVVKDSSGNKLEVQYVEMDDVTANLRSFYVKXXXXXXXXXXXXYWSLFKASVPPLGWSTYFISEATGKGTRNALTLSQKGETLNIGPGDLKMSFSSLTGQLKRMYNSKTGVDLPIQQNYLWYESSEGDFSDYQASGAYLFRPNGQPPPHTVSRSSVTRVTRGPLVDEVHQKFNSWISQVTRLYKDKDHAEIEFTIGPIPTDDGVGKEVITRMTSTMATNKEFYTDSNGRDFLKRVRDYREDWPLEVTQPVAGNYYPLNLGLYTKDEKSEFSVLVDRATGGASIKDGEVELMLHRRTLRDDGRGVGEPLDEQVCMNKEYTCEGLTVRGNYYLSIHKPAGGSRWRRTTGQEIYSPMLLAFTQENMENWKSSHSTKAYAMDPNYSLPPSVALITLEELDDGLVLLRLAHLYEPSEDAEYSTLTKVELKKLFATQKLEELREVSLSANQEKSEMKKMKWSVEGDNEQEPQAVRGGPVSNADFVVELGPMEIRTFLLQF

[8] = test system: human liver α-mannosidases; assay: inhibition of human liver α-mannosidases; type: biochemical
Source text: as §1

lysosomal α-mannosidase [9] = conditions: literature; cited from earlier work
[10] = test system: processing forms of α-mannosidase; conditions: literature; cited from earlier work
amyloglucosidase = conditions: literature (Nash et al.); cited from earlier work

Q: What does the source list for O[C@H]1[C@H]2[C@H](O)CCN2C[C@H]1O [Compound 3, (1S,2R,7R,7aR)-1,2,7-Trihydroxypyrrolizidine]?
A: inhibition of broad specificity β-galactosidase/β-glucosidase ([1]; 1 mM): 25%; IC50 (lysosomal α-mannosidase [2]; human liver lysosomal α-mannosidase, read-out: I50): 1500 µM; inhibition of snail β-mannosidase (snail β-mannosidase): no significant inhibition; inhibition of Golgi II processing mannosidase [3]: less effective; inhibition of β-galactosidase (β-galactosidase): 69%; inhibition of green coffee bean α-galactosidase [4]: no significant inhibition; inhibition of almond β-glucosidase (almond β-glucosidase): no significant inhibition; inhibition of bovine kidney α-fucosidase [5]: no significant inhibition; inhibition of Aspergillus niger α-galactosidase [6]: no significant inhibition; glycosidase inhibitory activity (glycosidases): weaker such activity than swainsonine; inhibition of bovine β-galactosidase (bovine β-galactosidase): no significant inhibition; inhibition of α-fucosidase (α-fucosidase): 33%; inhibition of neutral processing mannosidase [7]: less effective; inhibition of bovine β-hexosaminidase (bovine β-hexosaminidase): no significant inhibition; inhibition of yeast α-glucosidase (yeast α-glucosidase): no significant inhibition; Ki (Jack bean α-mannosidase): 1700 µM

Q: What does the source list for O[C@H]1[C@H]2[C@@H](O)CCN2C[C@H]1O [Compound 4, (1S,2R,7S,7aR)-1,2,7-Trihydroxypyrrolizidine]?
A: inhibition of broad specificity β-galactosidase/β-glucosidase ([1]; concentration not given): 40%; inhibition of human liver α-mannosidases [8]: does not inhibit; glycosidase inhibitory activity (glycosidases): weaker such activity than swainsonine

Q: For O[C@H]1[C@H]2[C@H](O)CCCN2C[C@H]1O [Compound 1, (1S,2R,8R,8aR)-1,2,8-Trihydroxyindolizidine], which Ki (lysosomal α-mannosidase [2]; lysosomal α-mannosidase, comparator) is on record?
A: 0.07 µM

Q: What about the “inhibition of lysosomal α-mannosidase” value (lysosomal α-mannosidase [9]) of the same compound?
A: potent and specific inhibitor

Q: What about the “inhibition of some of the processing forms of α-mannosidase” value [10] of the same compound?
A: potent and specific inhibitor

Q: For OC[C@@H]1[C@@H](O)[C@@H](O)[C@H]2[C@@H](O)CCN21 [Compound 5, 1,7a-diepialexine], which amyloglucosidase inhibition (amyloglucosidase) is on record?
A: powerful amyloglucosidase inhibitor
